Measured values reported in ChEMBL document CHEMBL1201862, “PubChem BioAssay data set” (2004).
The source made the active and inactive calls.

Assays:
[1] = molecular target: T1, Probable nicotinate-nucleotide adenylyltransferase (Staphylococcus aureus (strain N315), UniProt P65502); type: functional, Staphylococcus aureus subsp. aureus N315; conditions: read-out: IC50_Mean;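 as to IC50 Mean: confirmatory dose-response retesting of NadD inhibitor hits first found in an ultra-high-throughput screen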
T1 sequence (P65502 whole entry): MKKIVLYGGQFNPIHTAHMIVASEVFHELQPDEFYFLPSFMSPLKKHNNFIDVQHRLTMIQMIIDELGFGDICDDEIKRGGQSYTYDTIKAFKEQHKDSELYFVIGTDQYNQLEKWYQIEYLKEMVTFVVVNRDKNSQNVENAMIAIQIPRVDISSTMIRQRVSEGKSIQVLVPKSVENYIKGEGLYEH

[2] = molecular target: T1, Probable nicotinate-nucleotide adenylyltransferase; type: functional, Staphylococcus aureus subsp. aureus N315
Nonstructural protein 1 = Nonstructural protein 1 (Influenza A virus, UniProt Q194T2); type: functional, Influenza A virus (A/California/07/2009(H1N1))
Chain of Nonstructural protein 1 (Q194T2 whole entry, the tested form may be a part): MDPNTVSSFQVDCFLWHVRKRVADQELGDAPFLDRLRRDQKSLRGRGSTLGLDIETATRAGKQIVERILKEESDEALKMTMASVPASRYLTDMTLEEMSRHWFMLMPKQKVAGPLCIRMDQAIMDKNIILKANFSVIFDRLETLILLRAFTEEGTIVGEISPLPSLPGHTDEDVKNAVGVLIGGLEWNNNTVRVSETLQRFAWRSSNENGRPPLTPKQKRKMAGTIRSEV

[3] = molecular target: T2, Oxysterols receptor LXR-beta (Homo sapiens, UniProt P55055); type: functional, cell-based;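 also: agonist activity at LXR measured by a cell-based luminescence readout across a dose range, run as a counterscreen for daf-12 agonists; HEK293 cells with Gal4-LXR fusion and GAL4-driven luciferase reporter; potency for activation of Gal4-LXR reporter so compounds are agonists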
T2 sequence (P55055 whole entry): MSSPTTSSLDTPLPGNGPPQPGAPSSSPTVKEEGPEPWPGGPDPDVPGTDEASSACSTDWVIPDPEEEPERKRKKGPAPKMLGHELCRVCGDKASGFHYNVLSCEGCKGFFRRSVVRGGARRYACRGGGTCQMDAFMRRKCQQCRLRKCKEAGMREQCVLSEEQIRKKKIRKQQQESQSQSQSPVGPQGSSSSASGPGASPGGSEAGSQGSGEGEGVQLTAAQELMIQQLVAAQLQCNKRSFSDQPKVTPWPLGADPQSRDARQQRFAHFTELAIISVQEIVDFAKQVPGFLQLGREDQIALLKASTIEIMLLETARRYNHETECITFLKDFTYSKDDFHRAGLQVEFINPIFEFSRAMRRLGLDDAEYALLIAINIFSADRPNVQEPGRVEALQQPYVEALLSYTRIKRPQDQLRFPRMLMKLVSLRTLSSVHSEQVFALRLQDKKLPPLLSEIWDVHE

cells = type: functional
[4] = molecular target: 5-hydroxytryptamine receptor 2A (Mus musculus, UniProt P35363); type: functional, cell-based;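 also: CHO-K1 cells with tagged receptor and beta-arrestin; agonist potency measured as compound-induced activation of the receptor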
Chain of 5-hydroxytryptamine receptor 2A (P35363 whole entry): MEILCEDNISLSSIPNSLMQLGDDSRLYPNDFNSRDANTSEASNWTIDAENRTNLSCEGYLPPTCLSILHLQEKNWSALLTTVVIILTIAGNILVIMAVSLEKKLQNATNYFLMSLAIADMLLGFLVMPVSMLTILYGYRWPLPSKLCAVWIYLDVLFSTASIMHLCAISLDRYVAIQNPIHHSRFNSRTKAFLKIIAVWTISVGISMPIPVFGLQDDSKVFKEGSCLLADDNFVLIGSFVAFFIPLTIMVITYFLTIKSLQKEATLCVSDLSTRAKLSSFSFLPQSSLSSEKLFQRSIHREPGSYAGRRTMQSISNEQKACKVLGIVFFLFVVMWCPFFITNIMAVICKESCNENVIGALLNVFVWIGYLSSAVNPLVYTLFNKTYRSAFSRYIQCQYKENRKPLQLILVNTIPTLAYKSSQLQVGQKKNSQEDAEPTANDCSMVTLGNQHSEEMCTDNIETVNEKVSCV

[5] = Vero E6 cell cytotoxicity, dose response, cytotoxicity control for non-replicating M. tuberculosis project, secondary assay (AID 492998); type: functional, VeroE6; conditions: Vero C1008
[6] = molecular target: T3, DNA repair and recombination protein RAD54-like (Homo sapiens, UniProt Q92698); assay: inhibitors of human RAD54 branch migration, confirmation, biochemical, fluorescence, cherry-picked samples, dose series (AID 651657); type: functional
T3 sequence (Q92698 whole entry): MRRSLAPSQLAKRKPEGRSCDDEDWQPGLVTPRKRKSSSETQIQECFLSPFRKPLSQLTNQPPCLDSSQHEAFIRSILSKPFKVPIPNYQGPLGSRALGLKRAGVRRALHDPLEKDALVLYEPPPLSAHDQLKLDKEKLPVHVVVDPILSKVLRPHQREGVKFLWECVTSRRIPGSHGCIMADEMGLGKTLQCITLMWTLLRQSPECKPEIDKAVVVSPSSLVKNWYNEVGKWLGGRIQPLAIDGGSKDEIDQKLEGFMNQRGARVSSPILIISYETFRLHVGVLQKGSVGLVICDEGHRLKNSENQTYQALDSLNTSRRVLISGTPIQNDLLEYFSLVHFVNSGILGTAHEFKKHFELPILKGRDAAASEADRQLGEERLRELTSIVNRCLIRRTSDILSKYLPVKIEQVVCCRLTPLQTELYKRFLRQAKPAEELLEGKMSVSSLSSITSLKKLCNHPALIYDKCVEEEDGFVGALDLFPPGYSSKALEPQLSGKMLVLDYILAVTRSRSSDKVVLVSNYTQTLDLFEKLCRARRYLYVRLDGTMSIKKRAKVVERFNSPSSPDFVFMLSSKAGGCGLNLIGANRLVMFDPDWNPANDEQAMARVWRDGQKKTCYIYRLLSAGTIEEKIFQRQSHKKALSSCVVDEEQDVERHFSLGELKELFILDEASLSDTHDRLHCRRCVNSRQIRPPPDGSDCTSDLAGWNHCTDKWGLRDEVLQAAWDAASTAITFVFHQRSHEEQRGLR

Mu-type opioid receptor = Mu-type opioid receptor (Homo sapiens, UniProt P35372); type: functional, cell-based;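 also: U2OS cells with beta-arrestin recruitment to OPRM1 by beta-gal complementation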
Chain of Mu-type opioid receptor (P35372 whole entry): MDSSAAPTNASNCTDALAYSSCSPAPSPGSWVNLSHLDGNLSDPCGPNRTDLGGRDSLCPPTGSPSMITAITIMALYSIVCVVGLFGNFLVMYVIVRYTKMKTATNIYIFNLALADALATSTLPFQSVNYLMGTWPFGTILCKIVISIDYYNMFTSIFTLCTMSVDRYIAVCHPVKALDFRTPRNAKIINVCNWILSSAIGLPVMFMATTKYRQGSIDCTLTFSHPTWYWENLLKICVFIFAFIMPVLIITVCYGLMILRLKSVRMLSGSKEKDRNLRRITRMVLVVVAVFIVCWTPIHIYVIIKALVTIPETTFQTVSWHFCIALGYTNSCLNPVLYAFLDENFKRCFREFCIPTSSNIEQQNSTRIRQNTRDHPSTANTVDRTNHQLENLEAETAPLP

[7] = microbe, parasite or virus in culture; type: functional; conditions: Mycobacterium tuberculosis
[8] = molecular target: T4, DNA repair protein RAD52 homolog (Homo sapiens, UniProt P43351); type: functional, biochemical
T4 sequence (P43351 whole entry): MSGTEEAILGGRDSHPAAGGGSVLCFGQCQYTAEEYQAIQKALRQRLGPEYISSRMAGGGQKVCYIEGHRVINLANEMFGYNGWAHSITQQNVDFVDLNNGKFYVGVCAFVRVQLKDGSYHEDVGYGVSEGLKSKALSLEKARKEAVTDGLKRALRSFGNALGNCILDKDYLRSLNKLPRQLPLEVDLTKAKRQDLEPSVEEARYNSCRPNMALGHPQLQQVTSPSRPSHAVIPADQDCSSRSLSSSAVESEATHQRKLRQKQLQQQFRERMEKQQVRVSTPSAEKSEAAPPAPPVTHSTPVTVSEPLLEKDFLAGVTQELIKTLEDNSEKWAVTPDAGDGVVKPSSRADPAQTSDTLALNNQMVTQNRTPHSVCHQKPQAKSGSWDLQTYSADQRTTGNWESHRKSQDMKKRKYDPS

[9] = Luminescence Cell-Based Dose Retest to Confirm Inhibitors of Cancer Stem Cells. [Related pubchem assays (depositor defined):AID2717, AID2721]; type: functional; conditions: Homo sapiens
[10] = THP-1 cell cytotoxicity, dose response, cytotoxicity control for non-replicating M. tuberculosis project (AID 489025); type: functional
[11] = HepG2 cell cytotoxicity, dose response, cytotoxicity control for non-replicating M. tuberculosis project (AID 489018); type: functional; conditions: Mycobacterium tuberculosis
[12] = MDA-MB-231 cell growth inhibition, dose response, cytotoxicity control for RAD54 inhibitor project, CellTiter-Glo luminescence, cherry-pick (AID 651692); type: functional, cell-based
[13] = Luminescence Cell-Based Dose Response HTS to Identify Activators of Luciferase Translation or Activity in H4 […] Cells. [Related pubchem assays: 1829 (Project Summary), 1814 (Primary HTS)]; type: functional
[14] = Luminescence Cell-Based Dose Confirmation HTS to Identify Activators of 5'UTR Stem-Loop Driven Alpha-Synuclein mRNA Translation in H4 Neuroglioblastoma Cells. [Related pubchem assays: 1829 (Project Summary), 1814 (Primary HTS)]; type: functional
H4 = assay: Luminescence Cell-Based Dose Response HTS to Identify Activators of 5'UTR Stem-Loop Driven Prion Protein mRNA Translation in H4 Neuroglioblastoma Cells. [Related pubchem assays: 1829 (Project Summary), 1814 (Primary HTS)]; type: functional; conditions: Homo sapiens
[15] = molecular target: T5, Methionyl-tRNA synthetase, putative (Trypanosoma brucei brucei, UniProt Q38C91); type: functional, Trypanosoma brucei brucei strain 927/4 GUTat10.1
T5 sequence (Q38C91 whole entry): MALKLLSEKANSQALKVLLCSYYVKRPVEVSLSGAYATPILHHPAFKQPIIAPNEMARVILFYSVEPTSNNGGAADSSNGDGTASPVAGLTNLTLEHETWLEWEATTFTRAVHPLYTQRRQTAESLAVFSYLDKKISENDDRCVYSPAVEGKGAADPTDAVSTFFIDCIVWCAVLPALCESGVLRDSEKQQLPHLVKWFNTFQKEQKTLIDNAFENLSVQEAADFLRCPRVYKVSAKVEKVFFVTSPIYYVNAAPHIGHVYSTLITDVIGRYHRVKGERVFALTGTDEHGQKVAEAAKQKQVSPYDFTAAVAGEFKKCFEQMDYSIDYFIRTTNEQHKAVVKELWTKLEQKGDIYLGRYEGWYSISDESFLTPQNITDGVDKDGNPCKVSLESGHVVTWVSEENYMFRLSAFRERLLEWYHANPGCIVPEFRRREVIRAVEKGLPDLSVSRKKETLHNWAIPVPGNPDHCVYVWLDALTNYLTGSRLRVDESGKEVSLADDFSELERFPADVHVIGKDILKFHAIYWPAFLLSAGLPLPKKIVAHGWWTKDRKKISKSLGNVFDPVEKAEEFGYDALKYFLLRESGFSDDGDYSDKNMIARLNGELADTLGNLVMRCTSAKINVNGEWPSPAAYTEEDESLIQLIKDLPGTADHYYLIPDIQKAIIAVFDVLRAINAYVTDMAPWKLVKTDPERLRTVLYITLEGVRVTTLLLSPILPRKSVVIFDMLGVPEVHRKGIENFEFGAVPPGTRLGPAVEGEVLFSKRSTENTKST

[16] = molecular target: T5, Methionyl-tRNA synthetase, putative; type: functional, Trypanosoma brucei brucei strain 927/4 GUTat10.1; remark: listed apart in the source
[17] = cytotoxicity toward NIH3T3 fibroblasts, dose response, counter-screen, cell-based, ATP luminescence, mouse fibroblasts (AID 2010); type: functional;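 also: cells exposed to compound for about 90 hours before reading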
[18] = inhibitors of intracellular T. cruzi replication, confirmation, NIH3T3 host cells, beta-gal luminescence (AID 2044); type: functional, cell-based;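 also: intracellular parasites grown in NIH/3T3 mouse fibroblasts as host cells; luminescent beta-galactosidase reporter signal from transgenic T. cruzi replicating inside host cells; inhibitors lower the luminescence signal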
[19] = Counterscreen for inhibitors of Trypanosoma brucei methionyl tRNA synthetase (MetRS): Luminescence-based cell-based high throughput dose response assay to identify compounds that are cytotoxic to Jurkat human T lymphocyte cells.; type: functional
[20] = human group III sPLA2 inhibitors, dose response, biochemical, QFRET, IC50 (AID 743457);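 also: green fluorescence rise as the enzyme cleaves BODIPY PC-A2 in liposomes; potency for inhibition of the enzyme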
[21] = molecular target: T6, Short transient receptor potential channel 4 (Mus musculus, UniProt Q9QUQ5); assay: mouse TRPC4 channel activators, dose response, cell-based, HEK293 TRPC4/mu-opioid, Fluo-4 calcium (AID 434937); type: functional
T6 sequence (Q9QUQ5 whole entry): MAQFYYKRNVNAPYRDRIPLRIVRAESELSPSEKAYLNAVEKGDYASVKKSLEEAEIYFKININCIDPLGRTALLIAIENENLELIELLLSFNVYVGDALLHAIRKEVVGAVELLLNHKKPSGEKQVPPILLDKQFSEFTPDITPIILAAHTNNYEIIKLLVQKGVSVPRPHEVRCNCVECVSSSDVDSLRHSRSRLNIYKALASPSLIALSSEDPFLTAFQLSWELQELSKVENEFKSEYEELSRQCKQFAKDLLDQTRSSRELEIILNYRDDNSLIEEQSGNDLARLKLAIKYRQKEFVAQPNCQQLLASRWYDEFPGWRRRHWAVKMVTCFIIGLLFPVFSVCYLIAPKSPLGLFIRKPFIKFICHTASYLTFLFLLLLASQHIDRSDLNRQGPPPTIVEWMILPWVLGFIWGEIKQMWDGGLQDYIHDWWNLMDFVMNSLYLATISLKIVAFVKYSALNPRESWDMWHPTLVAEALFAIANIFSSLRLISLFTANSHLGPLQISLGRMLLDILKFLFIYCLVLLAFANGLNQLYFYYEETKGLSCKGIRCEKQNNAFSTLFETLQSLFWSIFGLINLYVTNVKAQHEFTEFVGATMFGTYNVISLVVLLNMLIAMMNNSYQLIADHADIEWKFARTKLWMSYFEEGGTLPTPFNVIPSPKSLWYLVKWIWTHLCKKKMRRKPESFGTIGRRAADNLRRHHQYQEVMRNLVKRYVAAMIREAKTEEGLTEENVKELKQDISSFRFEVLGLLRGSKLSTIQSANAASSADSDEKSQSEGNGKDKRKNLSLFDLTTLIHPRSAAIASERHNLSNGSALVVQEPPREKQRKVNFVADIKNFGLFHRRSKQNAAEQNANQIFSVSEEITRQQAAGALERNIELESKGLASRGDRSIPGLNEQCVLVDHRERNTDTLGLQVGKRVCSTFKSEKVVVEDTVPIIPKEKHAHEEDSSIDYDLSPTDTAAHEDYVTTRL

## Cc1ccc(-c2cc(-c3ccc(C)o3)nc(N)c2C#N)cc1
[1]
  IC50: 2.43 µM (active)
[2]
  IC50: 1.62 µM (active)

## c1ccc(CSc2ccc(-c3ccccn3)nn2)nc1
Nonstructural protein 1
  IC50: 4.94 µM (active)
[3]
  EC50: > 67.5 µM (inactive)

## CCCN(CCC)CCNC(=O)c1cc2c(-c3ccc(Cl)cc3)nn(C)c2s1
cells
  IC50: 15.5 µM (active)
[4]
  EC50: 6.58 µM (active)
[5]
  CC50: 16.6 µM (active)
[6]
  AC50: 20.9 µM (active)
Mu-type opioid receptor
  EC50: 92.5 µM (inactive)
[7]
  CC50: 15.1 µM (active)
[8]
  AC50: 14.5 µM (active)
[9]
  AC50: 3.81 µM (active)
[10]
  CC50: 31.6 µM (active)
[11]
  CC50: 11.8 µM (active)
[12]
  AC50: 37.1 µM (active)

## Cc1cc(C)cc(NC(=O)C(OC(=O)c2ccc(NC(=O)CC#N)cc2)c2ccccc2)c1 (stereo not drawn)
[1]
  IC50: 22.3 µM (active)
[2]
  IC50: 14.6 µM (active)

## Cc1ccc(C(=O)c2oc3ccc(Cl)cc3c2NC(=O)CN2CCN(C)CC2)cc1
[13]
  EC50: > 120 µM (not active)
[6]
  AC50: 11.8 µM (active)
[7]
  CC50: 14.2 µM (active)
[8]
  AC50: 5.97 µM (active)
[14]
  EC50: > 120 µM (not active)
H4
  EC50: > 120 µM (not active)
[12]
  AC50: 11.5 µM (active)

## COc1cccc2c1cc1c(=O)n(CC(=O)N3CCC(C)CC3)nc(C)n12
[4]
  EC50: 13.6 µM (inactive)
Mu-type opioid receptor
  EC50: 92.5 µM (inactive)

## O=C1NC[C@H](Cc2ccccc2)N(C[C@@H]2CCCN2C[C@H](Cc2ccccc2)N2C[C@H](Cc3ccc(O)cc3)N(CCc3ccccc3)C(=O)C2=O)C1=O
[1]
  IC50: 30.8 µM (active)
[2]
  IC50: 6.91 µM (active)

## Clc1ccccc1Nc1nc2ccccc2o1
[3]
  EC50: > 67.6 µM (inactive)

## O=C1[C@@H]2Cc3c([nH]c4ccccc34)C(c3cccc([N+](=O)[O-])c3)N2C(=O)CN1C1CCN(Cc2ccccc2)CC1 (stereo partly drawn)
[15]
  IC50: 3.18 µM (active)
[16]
  IC50: 1.82 µM (active)
[17]
  EC50: 9.77 µM (active)
[18]
  EC50: 1.8 µM (active)
[19]
  IC50: 27.1 µM (inactive)

## COc1ccc(C(=O)NC(=S)NNC(=O)c2c(-c3ccccc3)noc2C)cc1
[20]
  IC50: 24.2 µM (inactive)
[21]
  EC50: 3.76 µM (active)

## Cc1cc2c(c(=O)n1CC1CCCO1)C(c1ccc3c(c1)OCO3)C(C#N)=C(N)O2 (stereo not drawn)
[16]
  IC50: 119 µM (inactive)
[19]
  IC50: 83.3 µM (inactive)
